# Test results: paper PMC12316308, “Interactions of substrates and phosphinyl containing inhibitors with bacterial and human zinc proteases” (PLOS One, 2025)
# “And” between values parts separate entries of the source, which are not always exact repeats. Identical values can stand only once. Like-named read-outs stand apart in the source and are kept apart here.
# Legend:
# Format in all cases: biochemical
# pseudolysin (PLN, LasB) = target: T1, pseudolysin (PLN, LasB) (Pseudomonas aeruginosa, UniProt P14756); test: Enzyme inhibition kinetics, fluorogenic substrate ES005; details: for remaining activity at 100 µM: 100 µM inhibitor
# T1 construct: purchased Calbiochem (San Diego, CA, USA)
# T1 sequence (P14756 198-498): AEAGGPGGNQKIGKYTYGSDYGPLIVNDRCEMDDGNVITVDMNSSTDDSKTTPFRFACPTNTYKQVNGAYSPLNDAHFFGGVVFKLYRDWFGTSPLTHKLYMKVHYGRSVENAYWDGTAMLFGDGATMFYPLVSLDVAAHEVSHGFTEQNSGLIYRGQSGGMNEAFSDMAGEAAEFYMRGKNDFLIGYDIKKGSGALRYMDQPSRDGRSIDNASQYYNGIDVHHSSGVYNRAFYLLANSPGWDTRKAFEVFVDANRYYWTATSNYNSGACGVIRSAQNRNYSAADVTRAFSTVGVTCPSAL
# Method: (§1) Determination of reaction velocities. The substrate ES001 was used for APMA activated MMP-9 (MMP-9(A)), Mag-Trypsin activated MMP-9 (MMP-9(MT)) and MMP-14, while the substrate ES005 was used for ALN, PLN and TLN. The reaction velocities/initial rates (v) were determined at 37°C, at an excitation wavelength of 320 nm and an emission wavelength of 405 nm with a slit width of 10 nm using either a Perkin Elmer LS 50 Luminescence spectrometer and the FL WinLab Software Package (Perkin Elmer) or a Clario Star micro plate reader (CLARIOstar® BMG LABTECH).
# (§2) The phosphinic compounds were dissolved in 100% DMSO to a final concentration of 10 mM. In all assays, a fixed substrate concentration of 4.0 µM was used in a total volume of 100 µL 0.1 M Hepes pH 7.5, 10 mM CaCl2, 0.005% Brij-35 and 1.0% DMSO. Fixed enzyme concentrations were as follows; 0.05 nM MMP-9(A), 0.05 nM MMP-9(MT), 1.0 nM MMP-14, 1.4 nM ALN, 0.5 nM PLN and 0.21 nM TLN. Time dependent inhibitory experiments, with and without 100 μM of phosphinic compounds, were performed as follows: Compounds were either pre-incubated with proteases for 15 and 30 minutes at room temperature before initiating the enzymatic reaction by adding the substrate, or not pre-incubated, meaning the reaction was initiated by adding the protease to the mixture of substrate and compound. Control tests without the compound present were performed under the same conditions. Reactions were monitored for 30 minutes at 37°C.
# (§3) Determination of IC50 and Ki values. […] A fixed substrate concentration and the same enzyme and buffer conditions as described above were used. Enzymes, with or without inhibitors, were either pre-incubated for 30 minutes at room temperature or not pre-incubated, and initial rate assays were performed as described above. Assays were performed using a Clario Star microplate reader. The IC50 values with corresponding s.d. were calculated with GraphPad Prism 5 using equation 1 or 2, depending on the concentration range of the phosphinic compounds.
# (§4) Equation 3 describe the relationship between IC50 and Ki values for substrate competitive inhibitors, considering the fixed substrate concentration and the enzyme’s Km value for the substrate: […]
# aureolysin (ALN) = target: T2, aureolysin (ALN) (Staphylococcus aureus, UniProt P81177); test: as above; details: for remaining activity at 100 µM: 100 µM inhibitor
# T2 construct: purchased BioCentrum Ltd (Kraków, Poland)
# T2 sequence (P81177 209-509): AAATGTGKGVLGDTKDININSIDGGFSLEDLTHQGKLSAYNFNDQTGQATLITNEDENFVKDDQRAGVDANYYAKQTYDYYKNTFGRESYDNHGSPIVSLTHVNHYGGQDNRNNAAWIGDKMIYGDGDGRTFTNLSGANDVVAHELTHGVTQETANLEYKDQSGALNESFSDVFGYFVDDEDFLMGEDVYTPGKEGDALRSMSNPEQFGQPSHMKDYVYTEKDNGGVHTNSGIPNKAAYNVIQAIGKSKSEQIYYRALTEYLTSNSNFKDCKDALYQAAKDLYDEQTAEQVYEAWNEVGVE
# Method: as §1, §2, §3, §4
# thermolysin (TLN) = target: T3, thermolysin (TLN) (Bacillus thermoproteolyticus, UniProt P00800); test: as above; details: for vi/v0 avg (time dependent inhibition, Supplementary Figure S8): Thermolysin, inhibitor 100 µM
# T3 construct: purchased Calbiochem (San Diego, CA, USA)
# T3 sequence (P00800 233-548): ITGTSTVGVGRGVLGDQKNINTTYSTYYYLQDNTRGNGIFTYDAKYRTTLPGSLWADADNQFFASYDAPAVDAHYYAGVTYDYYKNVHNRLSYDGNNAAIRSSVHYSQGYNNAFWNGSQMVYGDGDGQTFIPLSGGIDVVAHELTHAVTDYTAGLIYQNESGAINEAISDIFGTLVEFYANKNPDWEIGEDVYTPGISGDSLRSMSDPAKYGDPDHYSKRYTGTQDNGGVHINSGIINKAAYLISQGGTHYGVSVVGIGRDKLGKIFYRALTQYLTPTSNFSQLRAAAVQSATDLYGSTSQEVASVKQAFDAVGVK
# Method: as §1, §2, §3, §4
# [1] = target: T4, human MT1-MMP/MMP-14 (catalytic domain) (Homo sapiens, UniProt P50281); test: Enzyme inhibition kinetics, fluorogenic substrate ES001; details: MMP-14; for remaining activity at 100 µM: 100 µM inhibitor
# T4 construct: human MT1-MMP/MMP-14 (catalytic domain); purchased Calbiochem (San Diego, CA, USA)
# Method: as §1, §2, §3, §4
# [2] = target: T5, Mag-Trypsin activated MMP-9 (MMP-9(MT)) (Homo sapiens, UniProt P14780); test: as above; details: rMMP-9 (Mag-trypsin activated); for remaining activity at 100 µM: 100 µM inhibitor
# T5 construct: made in house; host or cells: Sf9 and High Five insect cells
# T5 sequence (P14780 107-707 limits assumed): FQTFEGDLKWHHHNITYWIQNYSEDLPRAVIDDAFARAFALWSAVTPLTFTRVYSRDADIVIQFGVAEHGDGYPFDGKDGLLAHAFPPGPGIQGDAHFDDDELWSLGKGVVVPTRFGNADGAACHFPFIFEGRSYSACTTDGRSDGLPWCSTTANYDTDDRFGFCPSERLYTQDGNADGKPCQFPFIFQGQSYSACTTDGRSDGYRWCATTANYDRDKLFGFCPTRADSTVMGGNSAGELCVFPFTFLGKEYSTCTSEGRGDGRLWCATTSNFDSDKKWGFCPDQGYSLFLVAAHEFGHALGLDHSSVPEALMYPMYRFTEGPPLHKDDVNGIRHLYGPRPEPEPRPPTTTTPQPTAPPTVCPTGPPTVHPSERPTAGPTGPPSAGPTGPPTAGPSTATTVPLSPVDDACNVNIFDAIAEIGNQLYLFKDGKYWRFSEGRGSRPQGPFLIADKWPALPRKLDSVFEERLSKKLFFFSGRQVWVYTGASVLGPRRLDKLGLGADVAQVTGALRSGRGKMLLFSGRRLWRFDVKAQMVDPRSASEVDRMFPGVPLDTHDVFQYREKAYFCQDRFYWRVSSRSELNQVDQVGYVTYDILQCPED
# Method: (§5) The expression of recombinant full length proMMP-9 (rpMMP-9) in Sf9 and High Five insect cells and the purification were performed as previously described. The amount of proMMP-9 was estimated spectrophotometrically at 280 nm using ε280nm = […] [46] for the full length enzyme. Activation of the recombinant proMMP-9 was performed with APMA (auto-activation) and Mag-Trypsin as previously described, while the amount of active MMP-9 was determined by active site titration using galardin, also described previously.
# as §1, §2, §3, §4
# [3] = target: T6, APMA activated MMP-9 (MMP-9(A)) (Homo sapiens, UniProt P14780); test: as above; details: rMMP-9 (APMA activated); for remaining activity at 100 µM: 100 µM inhibitor
# T6 construct: made in house; host or cells: Sf9 and High Five insect cells
# T6 sequence (P14780 107-707 limits assumed): as above
# Method: as §5, §1, §2, §3, §4
# [4] = 0.25 h, 15 min pre incubation, read-out: vi/v0 (single replicate)
# [5] = 0.25 h, 15 min pre incubation, read-out: vi/v0 avg
# [6] = 0.5 h, 30 min pre incubation, read-out: vi/v0 avg
# [7] = no preincubation, read-out: vi/v0 (single replicate)
# [8] = no preincubation, read-out: vi/v0 avg
# [9] = inhibitor 100 μM, preincubation 0 min
# [10] = inhibitor 100 μM, preincubation 15 min
# [11] = inhibitor 100 μM, preincubation 30 min
# [12] = 0.5 h, 30 min pre incubation, read-out: vi/v0 (single replicate)
# [13] = inhibitor 100 μM, average over 0, 15, 30 min preincubation
structure (smiles),measurement,setting,value
CCOC(=O)C(CO)CP(=O)(O)C(Cc1ccccc1)NC(=O)OCc1ccccc1 (stereo not drawn) [H5],remaining activity at 100 µM,"pseudolysin (PLN, LasB); 0.25 h, read-out: vi/v0 (single replicate), Pseudolysin, 15 min pre incubation",83.9%
same,remaining activity at 100 µM,"pseudolysin (PLN, LasB); 0.25 h, read-out: vi/v0 avg, Pseudolysin, 15 min pre incubation",86.2%
same,remaining activity at 100 µM,"pseudolysin (PLN, LasB); 0.5 h, read-out: vi/v0 (single replicate), Pseudolysin, 30 min pre incubation",86.3%
same,remaining activity at 100 µM,"pseudolysin (PLN, LasB); 0.5 h, read-out: vi/v0 avg, Pseudolysin, 30 min pre incubation",75.4%
same,vi/v0 Av (bar diagram figure 7),"pseudolysin (PLN, LasB); Pseudolysin (PLN), inhibitor 100 μM, average over 0, 15, 30 min preincubation",0.86
same,"vi/v0 (relative enzyme activity with inhibitor), single determinations","pseudolysin (PLN, LasB); Pseudolysin (PLN), inhibitor 100 μM, preincubation 0 min",1.071 and 0.9333 and 0.8899
same,"vi/v0 (relative enzyme activity with inhibitor), single determinations","pseudolysin (PLN, LasB); Pseudolysin (PLN), inhibitor 100 μM, preincubation 15 min",0.8394 and 0.8848
same,"vi/v0 (relative enzyme activity with inhibitor), single determinations","pseudolysin (PLN, LasB); Pseudolysin (PLN), inhibitor 100 μM, preincubation 30 min",0.863 and 0.6659 and 0.7323
same,remaining activity at 100 µM,"pseudolysin (PLN, LasB); read-out: vi/v0 (single replicate), Pseudolysin, no preincubation",107%
same,remaining activity at 100 µM,"pseudolysin (PLN, LasB); read-out: vi/v0 avg, Pseudolysin, no preincubation",96.5%
same,remaining activity at 100 µM,"aureolysin (ALN); 0.25 h, read-out: vi/v0 (single replicate), Aureolysin, 15 min pre incubation",84.1%
same,remaining activity at 100 µM,"aureolysin (ALN); 0.25 h, read-out: vi/v0 avg, Aureolysin, 15 min pre incubation",89.9%
same,remaining activity at 100 µM,"aureolysin (ALN); 0.5 h, read-out: vi/v0 (single replicate), Aureolysin, 30 min pre incubation",89.6%
same,remaining activity at 100 µM,"aureolysin (ALN); 0.5 h, read-out: vi/v0 avg, Aureolysin, 30 min pre incubation",87.3%
same,vi/v0 Av (bar diagram figure 7),"aureolysin (ALN); Aureolysin (ALN), inhibitor 100 μM, average over 0, 15, 30 min preincubation",0.8959
same,"vi/v0 (relative enzyme activity with inhibitor), single determinations","aureolysin (ALN); Aureolysin (ALN), inhibitor 100 μM, preincubation 0 min",0.8465 and 0.9473 and 0.9691 and 0.8995
same,"vi/v0 (relative enzyme activity with inhibitor), single determinations","aureolysin (ALN); Aureolysin (ALN), inhibitor 100 μM, preincubation 15 min",0.8412 and 0.9365 and 0.9386 and 0.8803
same,"vi/v0 (relative enzyme activity with inhibitor), single determinations","aureolysin (ALN); Aureolysin (ALN), inhibitor 100 μM, preincubation 30 min",0.8961 and 0.824 and 0.8612 and 0.9107
same,remaining activity at 100 µM,"aureolysin (ALN); read-out: vi/v0 (single replicate), Aureolysin, no preincubation",84.6%
same,remaining activity at 100 µM,"aureolysin (ALN); read-out: vi/v0 avg, Aureolysin, no preincubation",91.6%
same,vi/v0 Av (bar diagram figure 7),"thermolysin (TLN); Thermolysin (TLN), inhibitor 100 μM, average over 0, 15, 30 min preincubation",1.046
same,"vi/v0 (relative enzyme activity with inhibitor), single determinations","thermolysin (TLN); Thermolysin (TLN), inhibitor 100 μM, preincubation 0 min",1.137 and 1.068 and 1.02 and 1.001
same,"vi/v0 (relative enzyme activity with inhibitor), single determinations","thermolysin (TLN); Thermolysin (TLN), inhibitor 100 μM, preincubation 15 min",1.051 and 0.8192 and 1.086 and 1.159
same,"vi/v0 (relative enzyme activity with inhibitor), single determinations","thermolysin (TLN); Thermolysin (TLN), inhibitor 100 μM, preincubation 30 min",1.144 and 1.0013 and 1.003 and 1.066
same,"vi/v0 avg (time dependent inhibition, Supplementary Figure S8)",thermolysin (TLN); 15 min pre incubation,1.029
same,"vi/v0 avg (time dependent inhibition, Supplementary Figure S8)",thermolysin (TLN); 30 min pre incubation,1.054
same,"vi/v0 avg (time dependent inhibition, Supplementary Figure S8)",thermolysin (TLN); No preincubation,1.056
same,remaining activity at 100 µM,[1]; [4],87.2%
same,remaining activity at 100 µM,[1]; [5],88.7%
same,remaining activity at 100 µM,[1]; [6],96.8%
same,remaining activity at 100 µM,[1]; [7],96.3%
same,remaining activity at 100 µM,[1]; [8],98.5%
same,vi/v0 Av (bar diagram figure 7),"[1]; inhibitor 100 μM, average over preincubation times",0.9417
same,"vi/v0 (relative enzyme activity with inhibitor), single determinations",[1]; [9],0.9629 and 1.0076
same,"vi/v0 (relative enzyme activity with inhibitor), single determinations",[1]; [10],0.8725 and 0.8868 and 0.9012
same,"vi/v0 (relative enzyme activity with inhibitor), single determinations",[1]; [11],1.138 and 0.953 and 0.8121
same,remaining activity at 100 µM,[2]; [4],87.3%
same,remaining activity at 100 µM,[2]; [5],84.8%
same,remaining activity at 100 µM,[2]; [12],86.9%
same,remaining activity at 100 µM,[2]; [6],88.1%
same,remaining activity at 100 µM,[2]; [7],88.4%
same,remaining activity at 100 µM,[2]; [8],88.5%
same,vi/v0 Av (bar diagram figure 7),[2]; [13],0.8694
same,"vi/v0 (relative enzyme activity with inhibitor), single determinations",[2]; [9],0.8838 and 0.8693 and 0.8452 and 0.9405
same,"vi/v0 (relative enzyme activity with inhibitor), single determinations",[2]; [10],0.8726 and 0.9039 and 0.8256 and 0.7918
same,"vi/v0 (relative enzyme activity with inhibitor), single determinations",[2]; [11],0.8689 and 0.8925
same,remaining activity at 100 µM,[3]; [5],102%
same,remaining activity at 100 µM,[3]; [12],77.7%
same,remaining activity at 100 µM,[3]; [6],83.7%
same,remaining activity at 100 µM,[3]; [8],100%
same,vi/v0 Av (bar diagram figure 7),[3]; [13],0.9644
same,"vi/v0 (relative enzyme activity with inhibitor), single determinations",[3]; [9],1.202 and 0.9509 and 1.0525 and 0.8
same,"vi/v0 (relative enzyme activity with inhibitor), single determinations",[3]; [10],1.106 and 1.228 and 0.879 and 0.8791
same,"vi/v0 (relative enzyme activity with inhibitor), single determinations",[3]; [11],0.7771 and 0.9097 and 0.824
